These results are taken from patent US6465429B1, “Antimicrobial cationic peptides” (priority 1995, dated 2002).

Where “and” joins values, the source holds several entries; their conditions need not be identical. Equal entries are not always repeated. Entries after “also recorded” stand apart in the source; their conditions may differ. Ends that are not written are not given here. Bounds are passed on as bounds.

Data set [1] deals with E. coli ML 35. The experiment in a line: Inner membrane permeabilization (β-galactosidase, ONPG). Conditions: for Lag Time / Rate of Hydrolysis: inner membrane permeabilization; for Lag Time: E. coli ML 35; for Rate of Hydrolysis: E. coli ML 35, ONPG. Type of data set: cell-based. Here is the method:
Inner membrane permeability was determined by measurement in E. coli ML 35 of β-galactosidase activity using ONPG as a substrate. Normally ONPG cannot pass across the cytoplasmic membrane to permit hydrolysis by the cytoplasmic enzyme β-galactosidase. However, cationic peptides, by permeabilizing the inner membrane, unmasks this enzyme leading to color development as ONP is released. […] Addition of citrate increased the lag time before the peptides were able to permeabilize the membranes. When the experiments were executed in cation adjusted media (CAMHB), the lag time was increased up to 30 minutes.

The test system of data set [2] is LPS-induced TNF in RAW 264.7 macrophage cells. The experiment in a line: Inhibition of LPS-mediated TNF induction in macrophages (L929 cytotoxic assay). The class given is cell-based. As to the method: RAW 264.7 macrophage cells were grown by seeding 10^6 cells into a 162 cm^2 cell culture flask and incubated at 37° C., 5%CO2 for 1 week. RAW cell media [(Dulbecco's Modified Eagle Medium with Hepes buffer 450 ml; 2.4 mML-glutamine 3 ml (400 mM); Pen/Strep 3 ml (10^4U/ml of Pen, 1 mg/ml strep); and 10% heat inactivated fetal bovine serum (FBS) 50 ml)] was then completely removed from flasks. 10 mls of cell dissociation solution (Sigma) was added to each flask and inc; bated at 37° C. for 10 minutes. Cells were removed from flasks, diluted in RAW cell media and centrifuged for 6 minutes. The cell pellet was resuspended in 5 ml of media/flask used, 100 μl cell suspension was removed and added to 400 ∥l of trypan blue and cells were counted using a hemocytometer. The cell suspension was diluted to 1×10^6 cells/ml and 1 ml of suspension was added per well of a 24 well plate. The 24 well plates were incubated at 37° C., 5% CO2 overnight for use in the assay.
After an overnight incubation, the media was aspirated from all the wells. 100 μl of Lipopolysaccharide (LPS) was added at 100 ng/100 μl. CEME, CEMA or MBI 29 was added at the desired concentration/100 μl to specified wells. […] The plates were then incubated for six hours at 37° C., 5% CO2. The supernatant was then removed from the wells and stored overnight at 4° C. For those wells in which whole bacteria were added directly to the wells, the supernatant was centrifuged in 0.2 μm filter eppendorf tubes for 5 minutes.
The supernatants were then used in cell cytotoxic L929 assay. The samples were transferred to 96 well plates. […]
TNF-sensitive L929 mouse fibroblast cells were grown by seeding 10^6 cells into a 162 cm^2 cell culture flask and left to grow for 1 week. […] The pellet was resuspended in 5 mls of fresh L929 media/flask and counted (same as RAW cells). […]
The plates were read at 570 nm in a ELISA plate reader with 690 nm reference filter. […]
In order to determine how rapidly the cationic peptides reduced LPS-induced TNF production, E. coli 0111:B4 was added at time 0 to RAW macrophages. […] Levels of TNF were measured after 6 hours. […]

Data set [3] has as its system RAW cells. The experiment in a line: RAW cell viability by Trypan blue exclusion. Type of data set: cell-based.
Data set [4] has as its system Red Blood Cells. The experiment in a line: Red Blood Cell lysis. The class given is cell-based.
The test system of data set [5] is P. aeruginosa. The experiment in a line: microbe, parasite or virus in culture. Particulars: agent alone. As to the method:
FICs are performed by checkerboard titrations of peptides in one dimension of a microtiter plate, and of antibiotics in the other dimension, for example. The FIC is calculated by looking at the impact of one antibiotic on the MIC of the other and vice versa. […] Preferably, an FIC of less than 0.5 is obtained for synergism. As used herein, FIC can be determined as follows: [formula]
Synergism is identified as an FIC of about ≦0.5.

Data set [6] is described as follows: Synergy of MBI 26 with lysozyme and further antibiotics (reduction in MIC). Type of data set: cell-based. Conditions: in combination with MBI 26 (1.25 μg/mL).
A short description of data set [7]: Dansyl polymyxin displacement assay. Type of data set: binding. Particulars: Dansyl polymyxin displacement from LPS. The text has this:
In addition, the peptides of SEQ ID NO: 5-8 also bound effectively to LPS with high affinity based on Dansyl polymyxin displacement assays (Table 5).

The nature of data set [8]: α helical content by CD spectra. Type of data set: physicochemical. Here is the method: The α helical content of the peptides were measured in buffer, liposomes and 20% Hexafluoroisopropanol (HFPIP). The liposomes constituted of POPC alone or POPC PC and 30% POPG (Table 7).

As for `CC[C@H](C)[C@H](NC(=O)[C@H](CC(C)C)NC(=O)[C@H](C)NC(=O)[C@@H]1CCCN1C(=O)[C@H](CC(C)C)NC(=O)CNC(=O)[C@@H](NC(=O)[C@@H](NC(=O)[C@H](CC(C)C)NC(=O)[C@@H](NC(=O)[C@H](CCCCN)NC(=O)[C@H](CCCCN)NC(=O)[C@@H](NC(=O)[C@H](C)NC(=O)[C@@H](NC(=O)[C@@H](NC(=O)[C@H](CC(C)C)NC(=O)[C@H](CCCCN)NC(=O)[C@H](CCCCN)NC(=O)[C@@H](NC(=O)[C@H](Cc1ccccc1)NC(=O)[C@H](CO)NC(=O)[C@H](CCCCN)NC(=O)[C@H](Cc1c[nH]c2ccccc12)NC(=O)[C@@H](N)CCCCN)[C@@H](C)CC)[C@@H](C)O)[C@@H](C)O)C(C)C)C(C)C)[C@@H](C)O)[C@@H](C)O)C(=O)N[C@@H](CO)C(=O)O` [MBI 29], in data set [1] (4 ug peptide), the “effect of 5 mM Mg++ on inner membrane permeabilization” value is on record as “the least affected by any of the conditions”. For the same molecule, the “TNF induction in washed RAW cells pre-incubated with peptide” value in data set [2] (20 μg MBI 29 for 60 minutes, washed 3 times, then 10 ng or 100 ng LPS) is 14,000-20,000 Units of TNF per ml. Besides, the “inhibition of TNF induction by LPS” value in data set [2] (E. coli 0111:B4 LPS, peptide added at 0, 30 and 60 minutes, TNF after 6 hours) is listed as “inhibited TNF induction by LPS in a similar manner to polymyxin B”. The “reduction of LPS-induced TNF when added after LPS” value in data set [2] (added 60 minutes after the addition of LPS) was “effective at reducing the ability of LPS to induce TNF; also recorded: distinct and reproducible advantage over polymyxin B”. Also, the “amount causing no apparent decrease in RAW cell viability” value in data set [3] is given as “Up to 50 μg”. In data set [4], the “RBC Lysis” value is more than 55 µg/mL. The MIC in data set [5] (P. aeruginosa isolate 27, strain 14644) is 128 µg/mL and 123 µg/mL; in data set [5] (P. aeruginosa isolate 28, strain 15036), 128 µg/mL; in data set [5] (Table 33, P. aeruginosa isolate 23, strain ATCC 27853) it was 32 μg · mL^1; in data set [5] (Table 33, P. aeruginosa isolate 24, strain 34) it was 16 μg · mL^1; in data set [5] (Table 33, P. aeruginosa isolate 25, strain 923-1), 32 μg · mL^1; in data set [5] (Table 33, P. aeruginosa isolate 26, strain 3101), 32 μg · mL^1. The MIC in data set [5] (Table 33, P. aeruginosa isolate 27, strain 14644) amounted to 32 μg · mL^1; in data set [5] (Table 33, P. aeruginosa isolate 28, strain 15036) it was 32 μg · mL^1; in data set [5] (Table 33, P. aeruginosa isolate 29, strain 15545), 32 μg · mL^1; in data set [5] (Table 33, P. aeruginosa isolate 30, strain B3999-1) it was 32 μg · mL^1; in data set [5] (Table 33, P. aeruginosa isolate 31, strain U7688-1) it was 32 μg · mL^1; in data set [5] (Table 33, P. aeruginosa isolate 32, strain W2897-1), 32 μg · mL^1. For the same molecule, the MIC in data set [5] (Table 33, P. aeruginosa isolate 33, strain W5483-2) was determined as 32 μg · mL^1.

For the molecule `CO[C@@H]1[C@@H](OC(N)=O)[C@@H](O)[C@H](Oc2ccc3c(O)c(NC(=O)c4ccc(O)c(CC=C(C)C)c4)c(=O)oc3c2C)OC1(C)C` [Novobiocin], the “reduction in MIC” value in data set [6] is given as more than 4 ×.

In the case of “KWKKFIKELQKVLAPGGLLSNIVTSL [compound 493]”, the “Lag Time” value in data set [1] came to 136 s. The “Rate of Hydrolysis” value in data set [1] is 0.14 ΔAU min^−1. The same molecule returned an Imax in data set [7] of 56%. For the same molecule, the “RBC Lysis” value in data set [4] was more than 55 µg/mL. The “% α helicity” value in data set [8] (20% HFIP) turned out to be 42%; in data set [8] (Buffer), 0%; in data set [8] (POPC Liposomes), 18%; in data set [8] (POPC/POPG Liposomes) it was 20%.

Take Lysozyme: the “reduction in MIC” value in data set [6] was more than 64 ×.

As for “KWKSFIKNLEKVLKKGPILANLVSIV [compound 491]”, the “Lag Time” value in data set [1] was found to be 152 s. For the same molecule, the “Rate of Hydrolysis” value in data set [1] was 0.14 ΔAU min^−1. Also, the Imax in data set [7] came out at 24%. Moreover, the “RBC Lysis” value in data set [4] was more than 55 µg/mL. Further, the “% α helicity” value in data set [8] (20% HFIP) worked out at 44%; in data set [8] (Buffer), 0%; in data set [8] (POPC Liposomes), 0%; in data set [8] (POPC/POPG Liposomes) it was 15%.

Take “H-KWKSFIKKLTSAAKKVVTTAKPLISS-OH [MBI 26]”: the “effect of 5 mM Mg++ on inner membrane permeabilization” value in data set [1] (4 ug peptide) was “large inhibitory effect”. Besides, in data set [1] (4 ug peptide, +100 mM NaCl), the “effect of 100 mM NaCl on inner membrane permeabilization” value is recorded as “little effect”. Further, in data set [4], the “RBC Lysis” value was more than 55 µg/mL.

As to `CC1(C)S[C@@H]2[C@H](NC(=O)C(C(=O)O)c3ccccc3)C(=O)N2[C@H]1C(=O)O` (stereo partly drawn) [carbenicillin], in data set [6], the “reduction in MIC” value worked out at 2 ×.

Take “KWKSFIKNLEKVLKPGGLLSNIVTSL [compound 490]”: the “Lag Time” value in data set [1] came to 156 s. In addition, the “Rate of Hydrolysis” value in data set [1] was 0.081 ΔAU min^−1. Further, the Imax in data set [7] came to 40%. In addition, the “RBC Lysis” value in data set [4] is more than 55 µg/mL. Also, the “% α helicity” value in data set [8] (20% HFIP) is reported as 41%; in data set [8] (Buffer), 0%; in data set [8] (POPC Liposomes), 29%; in data set [8] (POPC/POPG Liposomes), 27%.

Regarding `CC[C@H](C)[C@H](NC(=O)[C@H](CC(C)C)NC(=O)[C@H](C)NC(=O)[C@@H]1CCCN1C(=O)[C@H](CC(C)C)NC(=O)CNC(=O)[C@@H](NC(=O)[C@@H](NC(=O)[C@H](CC(C)C)NC(=O)[C@@H](NC(=O)[C@H](CCCCN)NC(=O)[C@H](CCCCN)NC(=O)[C@@H](NC(=O)[C@H](C)NC(=O)[C@@H](NC(=O)[C@@H](NC(=O)[C@H](CC(C)C)NC(=O)[C@H](CCCCN)NC(=O)[C@H](CCCCN)NC(=O)[C@@H](NC(=O)[C@H](Cc1ccccc1)NC(=O)[C@H](CCC(=O)O)NC(=O)[C@H](CCCCN)NC(=O)[C@H](Cc1c[nH]c2ccccc12)NC(=O)[C@@H](N)CCCCN)[C@@H](C)CC)[C@@H](C)O)[C@@H](C)O)C(C)C)C(C)C)[C@@H](C)O)[C@@H](C)O)C(=O)N[C@@H](CO)C(=O)O` [compound 492], the “Lag Time” value in data set [1] was 68 s. For the same molecule, in data set [1], the “Rate of Hydrolysis” value is 0.23 ΔAU min^−1. Besides, the Imax in data set [7] worked out at 48%. Also, the “RBC Lysis” value in data set [4] is more than 55 µg/mL. Moreover, the “% α helicity” value came out at 43% in data set [8] (20% HFIP), 0% in data set [8] (Buffer), 42% in data set [8] (POPC Liposomes) and 19% in data set [8] (POPC/POPG Liposomes).
